Source: US20260015358A1, “BICYCLIC DERIVATIVES, COMPOSITIONS AND USES THEREOF” (Danatlas Pharmaceuticals Co., Ltd., priority 2023, published 2026)

How the values were obtained:
[1] = molecular target: T1, WRN [UniPro: Q14191 (WRN_HUMAN), N500-C946] (Homo sapiens (Human), UniProt Q14191); assay: WRN ATPase assay (ADP-Glo); type: biochemical; settings: WRN enzymatic activity assay
[2] = molecular target: T1, WRN [UniPro: Q14191 (WRN_HUMAN), N500-C946]; assay: WRN unwinding assay (FORKF DNA, fluorescence); type: biochemical; settings: Table 14

T1 sequence (Q14191 500-946): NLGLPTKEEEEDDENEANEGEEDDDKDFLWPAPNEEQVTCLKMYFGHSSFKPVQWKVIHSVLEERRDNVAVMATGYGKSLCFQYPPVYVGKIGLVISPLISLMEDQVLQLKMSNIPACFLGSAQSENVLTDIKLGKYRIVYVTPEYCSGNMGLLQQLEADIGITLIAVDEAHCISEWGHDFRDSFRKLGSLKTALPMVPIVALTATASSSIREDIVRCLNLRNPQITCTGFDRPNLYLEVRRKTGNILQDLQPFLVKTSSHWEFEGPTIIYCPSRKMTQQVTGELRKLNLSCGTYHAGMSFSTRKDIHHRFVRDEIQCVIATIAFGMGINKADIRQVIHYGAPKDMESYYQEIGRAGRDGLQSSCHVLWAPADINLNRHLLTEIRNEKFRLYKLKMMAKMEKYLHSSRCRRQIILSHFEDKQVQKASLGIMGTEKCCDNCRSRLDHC

Row | IC50 [1] | IC50 [2] | Structure (SMILES)
1 | < 100 nM | < 100 nM | CCc1c(N2CCN(C(=O)CNC(=O)c3ccno3)CC2)c(=O)n2nc(N3CCOCC3)nc2n1CC(=O)Nc1ccc(C(F)(F)F)cc1Cl [Example 376, N-(2-(4-(4-(2-((2-Chloro-4-(trifluoromethyl)phenyl)amino)-2-oxoethyl)-5-ethyl-2-morpholino-7-oxo-4,7-dihydro-[1,2,4]triazolo[1,5-a]pyrimidin-6-yl)piperazin-1-yl)-2-oxoethyl) isoxazole-5-carboxamide]
2 | < 100 nM | < 100 nM | CCc1c(N2CCN(C(=O)c3cnn4ccnc4c3O)CC2)c(=O)n2nc(C3=CCOCC3)nc2n1CC(=O)Nc1ccc(C(F)(F)F)cc1Cl [Example 206, N-(2-Chloro-4-(trifluoromethyl)phenyl)-2-(2-(3,6-dihydro-2H-pyran-4-yl)-5-ethyl-6-(4-(8-hydroxyimidazo[1,2-b]pyridazine-7-carbonyl)piperazin-1-yl)-7-oxo-[1,2,4]triazolo[1,5-a]pyrimidin-4(7H)-yl)acetamide]
3 | < 100 nM | < 100 nM | CCc1c(N2CCN(C(=O)CNC(=O)Nc3nccs3)CC2)c(=O)n2nc(C3=CCOCC3)nc2n1CC(=O)Nc1ccc(C(F)(F)F)cc1Cl [Example 188, N-(2-Chloro-4-(trifluoromethyl)phenyl)-2-(2-(3,6-dihydro-2H-pyran-4-yl)-5-ethyl-7-oxo-6-(4-((thiazol-2-ylcarbamoyl)glycyl)piperazin-1-yl)-[1,2,4]triazolo[1,5-a]pyrimidin-4(7H)-yl)acetamide]
4 | 100 to 1000 nM | 100 to 1000 nM | CCc1c(N2CCN(C(=O)c3cccc(C)c3O)CC2)c(=O)n2nc(C3=CCOCC3)nc2n1CC(=O)Nc1ccc(C(F)(F)F)cc1Cl [Example 60, N-(2-Chloro-4-(trifluoromethyl)phenyl)-2-(2-(3,6-dihydro-2H-pyran-4-yl)-5-ethyl-6-(4-(2-hydroxy-3-methylbenzoyl)piperazin-1-yl)-7-oxo-[1,2,4]triazolo[1,5-a]pyrimidin-4(7H)-yl)acetamide]
5 | < 100 nM | < 100 nM | CCc1c(N2CCN(C(=O)c3ncc4ncsc4c3O)CC2)c(=O)n2nc(C3=CCOCC3)nc2n1CC(=O)Nc1ccc(C(F)(F)F)cc1Cl [Example 195, N-(2-Chloro-4-(trifluoromethyl)phenyl)-2-(2-(3,6-dihydro-2H-pyran-4-yl)-5-ethyl-6-(4-(7-hydroxythiazolo[4,5-c]pyridine-6-carbonyl)piperazin-1-yl)-7-oxo-[1,2,4]triazolo[1,5-a]pyrimidin-4(7H)-yl)acetamide]
6 | 100 to 1000 nM | > 1000 nM | CCc1c(N2CCN(C(=O)c3cc(-c4cc(OC)ncc4F)[nH]n3)CC2)c(=O)n2nc(C3=CCOCC3)nc2n1CC(=O)Nc1ccc(C(F)(F)F)cc1Cl [Example 9, N-(2-Chloro-4-(trifluoromethyl)phenyl)-2-(2-(3,6-dihydro-2H-pyran-4-yl)-5-ethyl-6-(4-(5-(5-fluoro-2-methoxypyridin-4-yl)-1H-pyrazole-3-carbonyl)piperazin-1-yl)-7-oxo-[1,2,4]triazolo[1,5-a]pyrimidin-4(7H)-yl)acetamide]
7 | 100 to 1000 nM | < 100 nM | CCc1c(N2CCN(C(=O)CNC(=O)c3ccccc3F)CC2)c(=O)n2nc(N3Cc4ccncc4C3)nc2n1CC(=O)Nc1ccc(C(F)(F)F)cc1Cl [Example 246, N-(2-(4-(4-(2-((2-Chloro-4-(trifluoromethyl)phenyl)amino)-2-oxoethyl)-2-(1,3-dihydro-2H-pyrrolo[3,4-c]pyridin-2-yl)-5-ethyl-7-oxo-4,7-dihydro-[1,2,4]triazolo[1,5-a]pyrimidin-6-yl)piperazin-1-yl)-2-oxoethyl)-2-fluorobenzamide]
8 | < 100 nM | < 100 nM | CCc1c(N2CCN(C(=O)C(=O)Nc3cc(C)no3)CC2)c(=O)n2nc(C3=CCOCC3)nc2n1CC(=O)Nc1ccc(C(F)(F)F)cc1Cl [Example 348, 2-(4-(4-(2-((2-Chloro-4-(trifluoromethyl)phenyl)amino)-2-oxoethyl)-2-(3,6-dihydro-2H-pyran-4-yl)-5-ethyl-7-oxo-4,7-dihydro-[1,2,4]triazolo[1,5-a]pyrimidin-6-yl)piperazin-1-yl)-N-(3-methylisoxazol-5-yl)-2-oxoacetamide]
9 | < 100 nM | 100 to 1000 nM | CCc1c(N2CCN(C(=O)CNC(=O)c3cc(N(C)C)ccc3F)CC2)c(=O)n2nc(C3=CCOCC3)nc2n1CC(=O)Nc1ccc(C(F)(F)F)cc1F [Example 224, N-(2-(4-(2-(3,6-Dihydro-2H-pyran-4-yl)-5-ethyl-4-(2-((2-fluoro-4-(trifluoromethyl)phenyl)amino)-2-oxoethyl)-7-oxo-4,7-dihydro-[1,2,4]triazolo[1,5-a]pyrimidin-6-yl)piperazin-1-yl)-2-oxoethyl)-5-(dimethylamino)-2-fluorobenzamide]
10 | < 100 nM | < 100 nM | CCc1c(N2CCN(C(=O)CNC(=O)c3ccc(OC)cc3F)CC2)c(=O)n2nc(C3=CCOCC3)nc2n1CC(=O)Nc1ccc(C(F)(F)F)cc1Cl [Example 379, N-(2-(4-(4-(2-((2-Chloro-4-(trifluoromethyl)phenyl)amino)-2-oxoethyl)-2-(3,6-dihydro-2H-pyran-4-yl)-5-ethyl-7-oxo-4,7-dihydro-[1,2,4]triazolo[1,5-a]pyrimidin-6-yl)piperazin-1-yl)-2-oxoethyl)-2-fluoro-4-methoxybenzamide]
11 | < 100 nM | < 100 nM | CCc1c(N2CCN(C(=O)c3cnc4[nH]ncc4c3O)CC2)c(=O)n2nc(C3=CCOCC3)nc2n1CC(=O)Nc1ccc(C(F)(F)F)cc1Cl [Example 3, N-(2-Chloro-4-(trifluoromethyl)phenyl)-2-(2-(3,6-dihydro-2H-pyran-4-yl)-5-ethyl-6-(4-(4-hydroxy-1H-pyrazolo[3,4-b]pyridine-5-carbonyl)piperazin-1-yl)-7-oxo-[1,2,4]triazolo[1,5-a]pyrimidin-4(7H)-yl)acetamide]
12 | 100 to 1000 nM | < 100 nM | CCc1c(N2CCN(C(=O)CNC(=O)c3ncc[nH]3)CC2)c(=O)n2nc(C3=CCOCC3)nc2n1CC(=O)Nc1ccc(C(F)(F)F)cc1Cl [Example 106, N-(2-(4-(4-(2-((2-Chloro-4-(trifluoromethyl)phenyl)amino)-2-oxoethyl)-2-(3,6-dihydro-2H-pyran-4-yl)-5-ethyl-7-oxo-4,7-dihydro-[1,2,4]triazolo[1,5-a]pyrimidin-6-yl)piperazin-1-yl)-2-oxoethyl)-1H-imidazole-2-carboxamide]
13 | < 100 nM | < 100 nM | CCc1c(N2CCN(C(=O)CNC(=O)c3cc(C)on3)CC2)c(=O)n2nc(C3=CCOCC3)nc2n1CC(=O)Nc1ccc(C(F)(F)F)cc1F [Example 218, N-(2-(4-(2-(3,6-Dihydro-2H-pyran-4-yl)-5-ethyl-4-(2-((2-fluoro-4-(trifluoromethyl)phenyl)amino)-2-oxoethyl)-7-oxo-4,7-dihydro-[1,2,4]triazolo[1,5-a]pyrimidin-6-yl)piperazin-1-yl)-2-oxoethyl)-5-methylisoxazole-3-carboxamide]
14 | 100 to 1000 nM | 100 to 1000 nM | CCc1c(N2CCN(C(=O)CNC(=O)c3nc(C)co3)CC2)c(=O)n2nc(C3=CCOCC3)nc2n1CC(=O)Nc1ccc(C(F)(F)F)cc1Cl [Example 301, N-(2-(4-(4-(2-((2-Chloro-4-(trifluoromethyl)phenyl)amino)-2-oxoethyl)-2-(3,6-dihydro-2H-pyran-4-yl)-5-ethyl-7-oxo-4,7-dihydro-[1,2,4]triazolo[1,5-a]pyrimidin-6-yl)piperazin-1-yl)-2-oxoethyl)-4-methyloxazole-2-carboxamide]
